Data as given in publication PMC4413647, “Simultaneous targeting of androgen receptor (AR) and MAPK-interacting kinases (MNKs) by novel retinamides inhibits growth of human prostate cancer cell lines” (Oncotarget, 2014).
Like-named read-outs stand apart in the source and are kept apart here.

How the values were obtained:
PWR-1E cells = test: MTT cell proliferation assay, 7 d, PWR-1E; type: cell-based; conditions: Homo sapiens, 168 h, immortalized untransformed prostate cells, 7 d treatment
From the text: (§1) Androgen-dependent (LNCaP), androgen-independent (PC-3) and castration resistant (C4-2B and 22Rv1) human prostate carcinoma cells were procured from American Type Culture Collection, Manassas, VA, USA and maintained in RPMI 1640 media (Gibco-Life Technologies, Grand Island, NY, USA) supplemented with 10% fetal bovine serum and 1% penicillin/streptomycin. […] Immortalized untransformed prostate epithelial cells, PWR1E from American Type Culture Collection were maintained in serum-free Keratinocyte media (Gibco) supplemented with epidermal growth factor and bovine pituitary extract. All cell lines were maintained in a 37 °C/5% CO2 humidified atmosphere.
(§2) Cell proliferation assay was performed as described previously. For cell growth experiment, cells were treated with the NRs for 7 days. MTT assay was performed at the end of the experiment. Calculations of combination indices were done using the Calcusyn program (Biosoft, Cambridge, United Kingdom). For colony formation assay, cells were plated 1000 per well in complete media and allowed to adhere for 24 h. The next day cells were treated with indicated compounds (5 μM). After 24 h compound containing media were removed, and cells were allowed to form colonies in complete media. Approximately 2 weeks later the colonies were fixed, stained with 0.5% crystal violet (sigma) for 30 min and counted manually. Results represent the mean ± standard deviation of three independent experiments.

PC-3 cells [1] = test: MTT cell proliferation assay, 7 d, PC-3; type: cell-based; conditions: Homo sapiens, PC-3, 168 h, 7 d treatment
From the text: as §1, §2

MR49F cells = test: MTT growth inhibition in Enzalutamide resistant MR49F cells; type: cell-based, human; conditions: for GI50: Homo sapiens, MR49F
Description: Figure 2 Effect of NRs on PCa cell growth and colony formation (A) Representative photographs of colonies formed in PCa cells at 14th day after initial treatment with specified compounds (5 μmol/L). Colonies were fixed with methanol and stained with crystal violet. (B) Data represents the mean ± S.E from three independent experiments. *, P< 0.05; ♣, P<0.01 compared to vehicle treated control. […] NRs that had promising inhibitory effect on cell proliferation on LNCaP cells were tested for their growth inhibitory effect in MR49F cells in comparison with Casodex and Abiraterone acetate by MTT assay.
as §1, §2

C4-2B cells = test: MTT cell proliferation assay, 7 d, C4-2B; type: cell-based; conditions: Homo sapiens, 168 h, 7 d treatment
From the text: as §1, §2

22Rv1 cells = test: MTT cell proliferation assay, 7 d, 22Rv1; type: cell-based; conditions: Homo sapiens, 22Rv1, 168 h, 7 d treatment
From the text: as §1, §2

LNCaP cells = test: MTT cell proliferation assay, 7 d, LNCaP; type: cell-based, human; conditions: Homo sapiens, LNCaP, 168 h, 7 d treatment
From the text: as §1, §2

Bax, cleaved PARP-1 = test: Western blot of Bax and cleaved PARP-1 in PCa cells; type: cell-based, human; conditions: 20 μM, 24 h, among the lead NRs
Description: Figure 4 Effect of NRs on cell cycle and apoptosis (A) LNCaP cells treated with 5 μM of NRs and other compounds for 24 h were stained with PI and analysed with a FACS calibur flow cytometer. (B) Total cell lysates from PCa cells treated with 20 μM of NRs were separated by SDS-PAGE and probed with cyclin D1 and B antibodies. […] (C) LNCaP cells were treated with indicated compounds (5 μmol/L) for 24 h and apoptosis induction was examined by oligonucleosomal fragmentation. Data are shown relative to vehicle treated control and the bars are means of three replicate determinations plus standard deviations. *, P< 0.01; ♣, P<0.05 compared with vehicle treated control. (D) PCa cells as indicated were seeded in 24 well plate, and treated with 5 μmol/L of NRs the subsequent day. After 24 h the plates were analyzed for apoptotic and viable cells using acridine orange/ethidium bromide staining. (E) Western blot analysis of apoptosis associated Bax and cPARP in PCa cells treated with NRs (20 μmol/L) for 24 h. (F) Apoptosis induction in LNCaP cells treated with 5 μmol/L of VNLG-147 and -152 in the presence or absence of ZVAD (5 μmol/L) was assessed by oligonucleosomal fragmentation after 24 h incubation. *, P< 0.05 compared with vehicle treated control. […]

PC-3 cells [2] = test: Wound healing migration assay; type: cell-based, human; conditions: 5 μM, 24 h
Description: Figure 5 Anti-migratory and anti-invasive potential of NRs (A) Effect of NRs treatment (5 μmol/L) on PC-3 cell migration was assessed by wound healing assay after 24 h of wound formation. Representative photomicrographs of initial and final wounds are shown at 100x magnification. (B) Effect of NRs on PC-3 cell invasion was evaluated by transwell migration assay. PC-3 cells were seeded on matrigel coated boyden chamber and treated with NRs (5 μmol/L, 24 h). Photographs represent the extent of cell invasion in each of the treated cells. (C) Western blot analysis of the effect of NRs on the expression of cadherins in PC-3 cells. Cells were treated with indicated compound 20 μmol/L for 24 h. […] For wound healing assay highly metastatic PC-3 cells were plated in a 24 well plate at a seeding density of 5 × 10^5 cells/ well and allowed to form a confluent monolayer for 24 h. Cells were made dormant by pretreating with 0.5 μmol/L mitomycin C for 2 h to ensure that wounds are filled due to cell migration and not by cell proliferation. Subsequently, the monolayer was scratched with a pipette tip, washed with media to remove floating cells, and photographed (time 0 h). Cells were then treated with indicated compounds (5 μM) and the experiment was terminated as soon as wound was completely filled in vehicle treated controls. Cells were then photographed again using Nikon TE2000 microscope at three randomly selected sites per well [43].

PC-3 cells [3] = test: Boyden chamber matrigel invasion assay; type: cell-based, human; conditions: PC-3, 5 μM, 24 h
Description: Figure 5 Anti-migratory and anti-invasive potential of NRs (A) Effect of NRs treatment (5 μmol/L) on PC-3 cell migration was assessed by wound healing assay after 24 h of wound formation. Representative photomicrographs of initial and final wounds are shown at 100x magnification. (B) Effect of NRs on PC-3 cell invasion was evaluated by transwell migration assay. PC-3 cells were seeded on matrigel coated boyden chamber and treated with NRs (5 μmol/L, 24 h). Photographs represent the extent of cell invasion in each of the treated cells. (C) Western blot analysis of the effect of NRs on the expression of cadherins in PC-3 cells. Cells were treated with indicated compound 20 μmol/L for 24 h.
The invasion assay in PC-3 cells was performed using Matrigel (BD Biosciences, Bedford, MA, USA)-coated transwell cell culture chambers (8 μm pore size, EMD Millipore, Temecula, CA, USA) as described previously (43). Briefly, PC-3 cells (5 × 10^4 cells/well) were cultured in the upper chamber of the transwell insert for 24 h in serum-free RPMI-1640 medium. The cells were then treated with 5 μM of indicated compounds for 24 h. RPMI-1640 medium containing 10% FBS was placed in the lower chamber. At the end of incubation, the top surface of the non-migrated cells were scraped gently with cotton swabs and the cells on the lower surface of the membrane (migrated cells) were fixed for 15 min with cold methanol and stained with crystal violet. Cells that had migrated to the bottom of the membrane were visualized and counted using an inverted microscope. For each replicate (n = 3), cells in three randomly selected fields were counted and averaged.

PCa cells = test: MTT cell viability in PCa cells (LNCaP, PC-3, C4-2B, 22Rv1); type: cell-based, human; conditions: for GI50: Homo sapiens, range over PCa cell lines; for growth inhibitory effect or differential sensitivity: PCa cells vs untransformed cells
Description: as §2

[4] = DHT induced, read-out: GI50 LNCaP, DHT induced
[5] = read-out: GI50 MR49F (Figure 2C)

| SMILES | GI50 (PWR-1E cells) | GI50 (PC-3 cells [1]) | GI50 (MR49F cells; read-out: GI50 MR49F) | GI50 (C4-2B cells) | GI50 (22Rv1 cells) | GI50 (LNCaP cells; read-out: GI50 LNCaP) | GI50 (LNCaP cells; [4]) | efficacy in inducing PARP cleavage and/or increasing Bax expression (Bax, cleaved PARP-1) | GI50 (MR49F cells; [5]) | PC-3 cell migration to the denuded zone (PC-3 cells [2]) | percentage of cell invasion compared to control (PC-3 cells [3]) | GI50 (PCa cells) | effect on growth of MR49F cells (MR49F cells; up to a concentration of 100 μmol/L) | growth inhibitory effect or differential sensitivity (PCa cells) |
| --- | --- | --- | --- | --- | --- | --- | --- | --- | --- | --- | --- | --- | --- | --- |
| CC(O)(CS(=O)(=O)c1ccc(F)cc1)C(=O)Nc1ccc(C#N)c(C(F)(F)F)c1 (centres unmarked) [Casodex, reference compound] | 69.1 µM | 9.15 µM | 43.6 µM | 1.51 µM | 3.81 µM | 2.61 µM | 2.95 µM |  |  |  |  |  |  |  |
| CC(=O)O[C@H]1CC[C@@]2(C)C(=CC[C@@H]3[C@@H]2CC[C@]2(C)C(c4cccnc4)=CC[C@@H]32)C1 [AA, Abiraterone acetate, reference compound] | 20.2 µM | 7.62 µM | 27.5 µM | 1.47 µM | 2.97 µM | 2.45 µM | 2.69 µM |  |  |  |  |  |  |  |
| CC1=C(/C=C/C(C)=C/C=C/C(C)=C/C(=O)Nc2ccccc2O)C(C)(C)CCC1n1ccnc1 (centres unmarked) [VNLG-147] | 71.5 µM | 2.95 µM |  | 2.66 µM | 2.04 µM | 1.86 µM | 1.41 µM | greater efficacies | 4.26 µM | potentially suppressed | 33 | 1.5 to 5.5 µM |  |  |
| CC1=C(/C=C/C(C)=C/C=C/C(C)=C/C(=O)Nc2ccc(O)cc2)C(C)(C)CCC1n1ccnc1 (centres unmarked) [VN/66-1] | 19.1 µM | 10.7 µM |  | 2.38 µM | 2.95 µM | 4.67 µM | 1.54 µM |  | 6.76 µM |  |  |  |  |  |
| CC1=C(/C=C/C(C)=C/C=C/C(C)=C/C(=O)Nc2ccc(O)cc2)C(C)(C)CCC1 [Compound 4-HPR, 4-hydroxyphenyl retinamide, reference compound] | 1.07 µM | 3.54 µM |  | 3.11 µM | 3.23 µM | 2.69 µM | 2.45 µM |  |  |  |  |  |  |  |
| CC1=C(/C=C/C(C)=C/C=C/C(C)=C/C(=O)Nc2ccccc2)C(C)(C)CCC1n1ccnc1 (centres unmarked) [VNLG-153] | 39.8 µM | 4.36 µM |  | 2.97 µM | 2.23 µM | 3.23 µM | 2.69 µM |  | 7.41 µM | potentially suppressed | 35 | 1.5 to 5.5 µM |  |  |
| CC1=C(/C=C/C(C)=C/C=C/C(C)=C/C(=O)O)C(C)(C)CCC1n1ccnc1 (centres unmarked) [VN/14-1] | 69.2 µM | 36.3 µM |  | 9.76 µM | 12.9 µM | 11.3 µM | 12.9 µM |  |  |  |  |  |  |  |
| CNC(=O)c1ccc(N2C(=S)N(c3ccc(C#N)c(C(F)(F)F)c3)C(=O)C2(C)C)cc1F [MDV3100, Enzalutamide, reference compound] | 17 µM |  |  | 1.54 µM |  |  |  |  | > 100 µM |  |  |  | no significant effect |  |
| CC1=C(/C=C/C(C)=C/C=C/C(C)=C/C(=O)O)C(C)(C)CCC1 [ATRA, all-trans-retinoic acid, reference compound] | 75.3 µM | 36.3 µM |  | 11.7 µM | 25.1 µM | 47.9 µM | 39.8 µM |  |  |  |  |  |  |  |
| CC1=C(/C=C/C(C)=C/C=C/C(C)=C/C(=O)Nc2ncnc3[nH]cnc23)C(C)(C)CCC1n1ccnc1 (centres unmarked) [VNLG-148] | 43.6 µM | 36.3 µM |  | 15.5 µM | 39.8 µM | 22.9 µM | 19.1 µM |  |  |  |  |  |  | did not display any notable growth inhibitory effect or differential sensitivity |
| CC1=C(/C=C/C(C)=C/C=C/C(C)=C/C(=O)Nc2cc(C(F)(F)F)ccc2C(F)(F)F)C(C)(C)CCC1n1ccnc1 (centres unmarked) [VNLG-146] | 63.1 µM | 57.5 µM |  | 11.7 µM | 39.8 µM | 57.5 µM | 52.5 µM |  |  |  |  |  |  | did not display any notable growth inhibitory effect or differential sensitivity |
| CC1=C(/C=C/C(C)=C/C=C/C(C)=C/C(=O)NC(C)(C)C)C(C)(C)CCC1n1ccnc1 (centres unmarked) [VNLG-145] | 25.1 µM | 4.26 µM |  | 2.14 µM | 2.23 µM | 2.45 µM | 2.23 µM |  | 3.89 µM |  |  | 1.5 to 5.5 µM |  |  |
